According to US20250002475A1 (EPICS THERAPEUTICS, priority 2023, published 2025):
pIC50: −log10 of the molar value.

Assays:
[1] = target: T1, recombinant METTL3/METTL14 complex (Homo sapiens, UniProt Q86U44); experiment: METTL3/14 Scintillation Proximity Assay (SPA), RNA methyltransferase activity; format: biochemical; settings: 5.31 nM METTL3/14 complex, 250 nM RNA substrate, 1 μM 3H-SAM, 90 min; for compounds marked * best of the two separated forms
T1 construct: purchased Active Motif 311970; host or cells: Sf9 cells
T1 sequence (Q86U44 whole entry): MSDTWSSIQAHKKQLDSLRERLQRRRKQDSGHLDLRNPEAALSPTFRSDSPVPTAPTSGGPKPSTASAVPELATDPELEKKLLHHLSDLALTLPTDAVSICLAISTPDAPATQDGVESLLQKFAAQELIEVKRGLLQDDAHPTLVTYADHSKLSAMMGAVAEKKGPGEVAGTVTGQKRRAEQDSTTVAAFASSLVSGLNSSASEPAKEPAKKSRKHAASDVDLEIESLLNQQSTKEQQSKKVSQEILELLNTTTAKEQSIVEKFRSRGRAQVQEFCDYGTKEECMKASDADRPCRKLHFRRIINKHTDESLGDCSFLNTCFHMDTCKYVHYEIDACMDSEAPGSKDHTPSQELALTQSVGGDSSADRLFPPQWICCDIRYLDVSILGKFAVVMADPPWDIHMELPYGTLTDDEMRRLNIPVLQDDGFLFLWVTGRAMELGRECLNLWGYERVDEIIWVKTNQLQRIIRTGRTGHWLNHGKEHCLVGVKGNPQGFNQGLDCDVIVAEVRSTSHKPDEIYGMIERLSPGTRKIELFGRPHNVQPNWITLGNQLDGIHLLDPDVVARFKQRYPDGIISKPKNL
T1 sequence (Q9HCE5 whole entry partner): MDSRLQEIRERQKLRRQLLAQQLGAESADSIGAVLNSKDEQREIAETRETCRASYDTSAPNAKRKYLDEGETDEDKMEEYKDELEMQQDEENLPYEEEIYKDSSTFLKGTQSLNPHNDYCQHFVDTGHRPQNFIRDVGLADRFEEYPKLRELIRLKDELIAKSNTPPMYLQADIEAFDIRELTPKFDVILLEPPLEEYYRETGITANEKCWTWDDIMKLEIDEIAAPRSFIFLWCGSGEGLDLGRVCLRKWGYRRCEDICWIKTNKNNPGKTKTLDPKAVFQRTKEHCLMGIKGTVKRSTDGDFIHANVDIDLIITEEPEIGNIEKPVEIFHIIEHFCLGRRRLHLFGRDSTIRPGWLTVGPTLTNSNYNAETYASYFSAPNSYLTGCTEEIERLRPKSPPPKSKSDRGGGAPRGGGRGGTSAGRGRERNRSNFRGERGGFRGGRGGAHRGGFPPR

Kasumi-1 cells = experiment: Kasumi-1 cellular viability assay (ATP-Lite, 72 h); format: cell-based; settings: Homo sapiens, ATP-Lite luminescence, % viability relative to DMSO
Experimental: Kasumi-1 cell line was purchased from ATCC (ATCC® CRL2724™). Cells were isolated from the peripheral blood of a child with acute myeloid leukemia (AML FAB M2) (in 2nd relapse after bone marrow transplantation) in 1989. Most cells are round. Kasumi-1 cells are observed to grow individually or in small clumps in suspension.
Kasumi-1 cells are cultured in RPMI-1640 (Gibco A10491-01) containing 10% heat-inactivated and 0.22 μm filtered FBS (Gibco 10270-106) at a density of 3E+5 and 3E+6 viable cell/mL following the certificate of analysis.
Cellular viability assay: Kasumi-1 cells were plated (50 μL) in 96-well cell culture microplates (PS, F-Bottom black, Cellstar, Greiner 655086) at final concentration of 15000 cells/well. The compounds of the invention were dissolved in DMSO, and a titration curve was generated at 1000× final concentration. Compounds were then diluted 500× in tissue culture medium (RPMI-1640, 10% FBS). Then 50 μl of test compound were added to Kasumi-1 cells in a final DMSO concentration of 0.1%, final volume 100 μl. A gas permeable sealing membrane was applied to the plate to prevent evaporation (Breathe-Easy sealing membrane, Sigma Z380059-1PK) and cells were incubated for 72 h at 37° C., 5% CO2, 80% RH. After 72h of treatment, the plates were taken out of the incubator and left for a few minutes at room temperature. 100 μl of the reconstituted reagent ATP-Lite One Step (Perkin Elmer, 6016739) was added to each well. The plates were shaken for 2 min at 700 rpm and placed in the dark for 10 minutes at room temperature before measurement of luminescence intensity with Envision instrument. The raw data were expressed in RLU. Results were expressed in % of viability relative to DMSO control and an IC50 was calculated based on the concentration-response profile of individual compounds.

Row | Compound | pIC50 [1] | pIC50 (Kasumi-1 cells)
1 | COc1cc(-c2cn(Cc3n[nH]c(N4CCC[C@@H](NCC5CCC5)C4)cc3=O)nn2)c2cn[nH]c2c1 [Compound 039, (R)-6-(3-((cyclobutylmethyl)amino)piperidin-1-yl)-3-((4-(6-methoxy-1H-indazol-4-yl)-1H-1,2,3-triazol-1-yl)methyl)pyridazin-4(1H)-one] | ≥ 7.30 | < 5.30
2 | COc1cnc(C)c(-c2cn(C(C)n3ccc(N4CCC[C@@H](NCC5CCC5)C4)cc3=O)nn2)c1 (stereo partly drawn) [Compound 114, 4-((R)-3-((cyclobutylmethyl)amino)piperidin-1-yl)-1-(1-(4-(5-methoxy-2-methylpyridin-3-yl)-1H-1,2,3-triazol-1-yl)ethyl)pyridin-2(1H)-one] | ≥ 7.30 | –
3 | COc1cncc(-c2cn(C3(c4ccc(N5CCC[C@@H](NCC6CCC6)C5)nn4)CC3)nn2)c1 [Compound 115, (R)-N-(cyclobutylmethyl)-1-(6-(1-(4-(5-methoxypyridin-3-yl)-1H-1,2,3-triazol-1-yl)cyclopropyl)pyridazin-3-yl)piperidin-3-amine] | ≥ 7.30 | –
4 | COc1cnnc(-c2cn(Cc3ccc(N4CCC[C@@H](NCC5CCC5)C4)cn3)nn2)c1 [Compound 118, (R)-N-(cyclobutylmethyl)-1-(6-((4-(5-methoxypyridazin-3-yl)-1H-1,2,3-triazol-1-yl)methyl)pyridin-3-yl)piperidin-3-amine] | ≥ 7.30 | –
5 | COc1cncc(-c2nnc(C(C)n3ccc(N4CCC[C@@H](NCC5CCC5)C4)cc3=O)s2)c1 (stereo partly drawn) [Compound 119, 4-((R)-3-((cyclobutylmethyl)amino)piperidin-1-yl)-1-(1-(5-(5-methoxypyridin-3-yl)-1,3,4-thiadiazol-2-yl)ethyl)pyridin-2(1H)-one] | ≥ 7.30 | –
6 | CNc1cncc(-c2cn(C(C)n3ccc(N4CCC[C@@H](NCC5CCC5)C4)cc3=O)nn2)n1 (stereo partly drawn) [Compound 121, 4-((R)-3-((cyclobutylmethyl)amino)piperidin-1-yl)-1-(1-(4-(6-(methylamino)pyrazin-2-yl)-1H-1,2,3-triazol-1-yl)ethyl)pyridin-2(1H)-one] | ≥ 7.30 | –
7 | COc1cncc(-c2noc(C(C)n3ccc(N4CCC[C@@H](NCC5CCC5)C4)cc3=O)n2)c1 (stereo partly drawn) [Compound 125, 4-((R)-3-((cyclobutylmethyl)amino)piperidin-1-yl)-1-(1-(3-(5-methoxypyridin-3-yl)-1,2,4-oxadiazol-5-yl)ethyl)pyridin-2(1H)-one] | 6.30 to 7.30 | –
8 | O=c1cc(-c2cn(Cc3ccc(N4CCC[C@@H](NCC5CCC5)C4)cn3)nn2)nc2ccccn12 [Compound 127, (R)-2-(1-((5-(3-((cyclobutylmethyl)amino)piperidin-1-yl)pyridin-2-yl)methyl)-1H-1,2,3-triazol-4-yl)-4H-pyrido[1,2-a]pyrimidin-4-one] | ≥ 7.30 | –
9 | O=c1cc(-c2cn(Cc3ccc(N4CCC[C@@H](NCC5CCC5)C4)cc3)nn2)nc2ccccn12 [Compound 128, (R)-2-(1-(4-(3-((cyclobutylmethyl)amino)piperidin-1-yl)benzyl)-1H-1,2,3-triazol-4-yl)-4H-pyrido[1,2-a]pyrimidin-4-one] | ≥ 7.30 | –
10 | CC(n1cc(-c2cncc(OC(F)F)c2)nn1)n1ccc(N2CCC[C@@H](NCC3CCC3)C2)cc1=O (some centres unmarked) [Compound 131] | ≥ 7.30 | –
11 | COc1cnnc(-c2cn(Cc3ccc(N4CCC[C@@H](NCC5CCC5)C4)cc3)nn2)c1 [Compound 136, (R)-N-(cyclobutylmethyl)-1-(4-((4-(5-methoxypyridazin-3-yl)-1H-1,2,3-triazol-1-yl)methyl)phenyl)piperidin-3-amine] | ≥ 7.30 | –
12 | COc1cncc(NC(=O)C(C)c2ccc(N3CCC[C@@H](NCC4CCC4)C3)nn2)c1 (stereo partly drawn) [Compound 141, 2-(6-((R)-3-((cyclobutylmethyl)amino)piperidin-1-yl)pyridazin-3-yl)-N-(5-methoxypyridin-3-yl)propanamide] | 6.30 to 7.30 | –
13 | COc1cncc(-c2nnn(Cc3ccc(N4CCC[C@@H](NCC5CCC5)C4)cc3)n2)c1 [Compound 145, (R)-N-(cyclobutylmethyl)-1-(4-((5-(5-methoxypyridin-3-yl)-2H-tetrazol-2-yl)methyl)phenyl)piperidin-3-amine] | 6.30 to 7.30 | –
14 | CC(n1cc(-c2cncc3[nH]ncc23)nn1)n1ccc(N2CCC[C@@H](NCC3CCC3)C2)cc1=O (some centres unmarked) [Compound 147] | ≥ 7.30 | –
15 | C=C(c1ccc(N2CCC[C@@H](NCC3CCC3)C2)cc1)n1cc(-c2cncc(N(C)C)c2)nn1 [Compound 155, (R)-5-(1-(1-(4-(3-((cyclobutylmethyl)amino)piperidin-1-yl)phenyl)vinyl)-1H-1,2,3-triazol-4-yl)-N,N-dimethylpyridin-3-amine] | ≥ 7.30 | –
16 | CC(C(=O)Nc1cncc(N(C)C)c1)c1ccc(N2CCC[C@@H](NCC3CCC3)C2)nn1 (stereo partly drawn) [Compound 157, 2-(6-((R)-3-((cyclobutylmethyl)amino)piperidin-1-yl)pyridazin-3-yl)-N-(5-(dimethylamino)pyridin-3-yl)propanamide] | 6.30 to 7.30 | –
17 | Cc1cc(N2CCC[C@@H](NCC3CC3)C2)cc(=O)n1Cn1cc(-c2cncc(N(C)C)c2)nn1 [Compound 163] | ≥ 7.30 | –
18 | CC(C(=O)Nc1cncc(N2CCCC2)c1)c1ccc(N2CCC[C@@H](NCC3CC3)C2)nn1 (stereo partly drawn) [Compound 251, 2-(6-((R)-3-((cyclopropylmethyl)amino)piperidin-1-Yl)pyridazin-3-yl)-N-(5-(pyrrolidin-1-yl)pyridin-3-yl)propanamide] | ≥ 7.30 | –
19 | COc1cncc(-c2cn(C(C)c3ccc(N4CCC[C@@H](NCC5CC5)C4)cn3)nn2)n1 (stereo partly drawn) [Compound 261, (3R)—N-(cyclopropylmethyl)-1-(6-(1-(4-(6-methoxypyrazin-2-yl)-1H-1,2,3-triazol-1-yl)ethyl)pyridin-3-yl)piperidin-3-amine] | ≥ 7.30 | –
20 | CC(C(=O)Nc1cc(=O)n2ccccc2n1)c1ccc(N2CCC[C@@H](NCC3CCC3)C2)cn1 (stereo partly drawn) [Compound 265, 2-(5-((R)-3-((cyclobutylmethyl)amino)piperidin-1-yl)pyridin-2-yl)-N-(4-oxo-4H-pyrido[1,2-a]pyrimidin-2-yl)propanamide] | ≥ 7.30 | –
21 | O=C(Cc1ccc(N2CCC[C@@H](NCC3CCC3)C2)cn1)Nc1cncc(N2CCCC2)c1 [Compound 271, (R)-2-(5-(3-((cyclobutylmethyl)amino)piperidin-1-yl)pyridin-2-yl)-N-(5-(pyrrolidin-1-yl)pyridin-3-yl)acetamide] | ≥ 7.30 | –
22 | COc1cc(NC(=O)C2(c3ccc(N4CCC[C@@H](NCC5CCC5)C4)cn3)COC2)c2cn[nH]c2c1 [Compound 273, (R)-3-(5-(3-((cyclobutylmethyl)amino)piperidin-1-yl)pyridin-2-yl)-N-(6-methoxy-1H-indazol-4-yl)oxetane-3-carboxamide] | ≥ 7.30 | –
23 | CC(C(=O)Nc1cncc(N2CCCC2)n1)c1ccc(N2CCC[C@@H](NCC3CCC3)C2)cn1 (stereo partly drawn) [Compound 274, 2-(5-((R)-3-((cyclobutylmethyl)amino)piperidin-1-yl)pyridin-2-yl)-N-(6-(pyrrolidin-1-yl)pyrazin-2-yl)propanamide] | ≥ 7.30 | –
24 | CC(C(=O)Nc1cc(=O)n2ccccc2n1)c1ccc(N2CCC[C@@H](NCC3CCC3)C2)nn1 (stereo partly drawn) [Compound 275, 2-(6-((R)-3-((cyclobutylmethyl)amino)piperidin-1-yl)pyridazin-3-yl)-N-(4-oxo-4H-pyrido[1,2-a]pyrimidin-2-yl)propanamide] | 6.30 to 7.30 | –
25 | O=C(Cc1ccc(N2CCC[C@@H](NCC3CCC3)C2)cn1)Nc1cncc(N2CCCC2)n1 [Compound 277, (R)-2-(5-(3-((cyclobutylmethyl)amino)piperidin-1-yl)pyridin-2-yl)-N-(6-(pyrrolidin-1-yl)pyrazin-2-yl)acetamide] | ≥ 7.30 | –
26 | O=C(Nc1cnc2[nH]ccc2c1)C1(c2ccc(N3CCC[C@@H](NCC4CCC4)C3)cn2)COC1 [Compound 299, (R)-3-(5-(3-((cyclobutylmethyl)amino)piperidin-1-yl)pyridin-2-yl)-N-(1H-pyrrolo[2,3-b]pyridin-5-yl)oxetane-3-carboxamide] | 6.30 to 7.30 | –
27 | O=C(Nc1cc2ccccc2c(=O)[nH]1)C1(c2ccc(N3CCC[C@@H](NCC4CCC4)C3)cn2)COC1 [Compound 302, (R)-3-(5-(3-((cyclobutylmethyl)amino)piperidin-1-yl)pyridin-2-yl)-N-(1-oxo-1,2-dihydroisoquinolin-3-yl)oxetane-3-carboxamide] | ≥ 7.30 | –
28 | Cn1c(N2CCCC2)cc(-c2cn(C3(c4ccc(N5CCC[C@@H](NCC6CC6)C5)cn4)COC3)nn2)cc1=O [Compound 314, (R)-4-(1-(3-(5-(3-((cyclopropylmethyl)amino)piperidin-1-yl)pyridin-2-yl)oxetan-3-yl)-1H-1,2,3-triazol-4-yl)-1-methyl-6-(pyrrolidin-1-yl)pyridin-2(1H)-one] | ≥ 7.30 | –
